Results reported in paper PMC6943742, “Peptide/Peptoid Hybrid Oligomers: The Influence of Hydrophobicity and Relative Side-Chain Length on Antibacterial Activity and Cell Selectivity” (Molecules, 2019).
≈ marks a conversion by molar mass, not a printed value. Where two headings read alike, the source gives them in different places. Non-standard residues stand in square brackets, D forms with d. Residues, ends and D or L forms follow the SMILES beside them. N(5-aminopentyl)Gly = NCCCCCNCC(=O)O; Gly(NCH2CH2Ph) = O=C(O)CNCCc1ccccc1; hPhe = N[C@@H](CCc1ccccc1)C(=O)O; hLys = NCCCCC[C@H](N)C(=O)O; Nphe = O=C(O)CNCc1ccccc1; Orn = NCCC[C@H](N)C(=O)O; Dab = NCC[C@H](N)C(=O)O

What was measured:
[1] = Relative hydrophobicity by RP-HPLC (% MeCN at peak elution); assay type: physicochemical; settings: RP-HPLC gradient 0 → 60% B during 10 min; % MeCN at peak elution calculated from retention time
Protocol: The relative hydrophobicity of each peptidomimetic was measured by reverse-phase high-performance liquid chromatography (RP-HPLC). Typically, the RP-HPLC retention time (or percentage acetonitrile at peak elution) constitutes the preferred measure that allows for comparison of relative hydrophobicity, while log P values of polycationic peptides or peptidomimetics normally are considered unsuitable due to the extreme hydrophilic nature of such compounds [11, 45, 57, 58, 59, 60]. […] For both subgroups III (with cationic amino acid residues and the peptoid analogue of Phe, NPhe, i.e., 9–12) and IV (with cationic amino acid residues and the peptoid analogue of hPhe, NhPhe, i.e., 13–16) only minor differences in hydrophobicity were seen. These observations infer that, when the cationic residues are of a peptoid nature, the side-chain length of these has a […] influence on the hydrophobicity. […] Thus, introduction of additional six methylene groups results, as expected, in increased hydrophobicity.
Starting materials and solvents were purchased from commercial suppliers (Iris Biotech, Markredwitz, Germany; Fluorochem, Hadfield, United Kingdom; and Merck, Darmstadt, Germany) and used without further purification. Water used for analytical and preparative high-performance liquid chromatography (HPLC) was filtered through a 0.22-μm Millipore membrane filter. Purity and retention time of each peptidomimetic were determined by analytical UHPLC by using a Phenomenex Luna C18(2) HST column (100 mm × 3 mm; particle size: 2.5 μm; pore size: 100 Å) on a Shimadzu Prominence and Shimadzu Nexera system using an aqueous acetonitrile (MeCN) gradient with 0.1% trifluoroacetic acid (TFA) added (eluent A: 5:95 MeCN–H2O + 0.1% TFA, eluent B: 95:5 MeCN–H2O + 0.1% TFA); a flow rate of 0.5 mL/min was used. For elution of peptidomimetics, a linear gradient of 0% to 60% B during 10 min was used with UV detection at λ = 220 nm. […] For each peptidomimetic, the percentage of MeCN at peak elution was calculated from the retention time by using the following formula:(1) %MeCN = 0.95 (0.6Rt/10 min.) + 0.05 (1−0.6Rt/10 min.).

E. coli ATCC 25922 = assay type: cell-based
Protocol: (§1) MIC values were evaluated by using the modified Hancock lab protocol in non-binding polystyrene microtitre plates, with bacterial suspensions of ∼2 × 10^5 CFU/mL in Mueller-Hinton broth (Difco, Sparks MD, USA), with Mg^2+ and Ca^2+ concentrations of 4 mg/L each. The compounds were dissolved in H2O and diluted in 0.01% acetic acid, 0.2% BSA (final concentration). Aliquots of 11 µL of 10 × test compounds were then transferred to the appropriate wells with bacterial suspensions. For preparation and transfer of the solutions of the compounds, low-binding sterile tubes and tips (Axygen, Union City CA, USA) were used. After 20 h incubation of covered plates at 35 °C (±2 °C) with circular shaking at 220 rpm, the MICs were read. The antibacterial activity of peptidomimetics was tested against E. coli ATCC 25922, K. pneumoniae ATCC 13883, P. aeruginosa ATCC 27853, P. aeruginosa PAO1, A. baumannii ATCC 19606, S. aureus ATCC 29213, and E. faecalis ATCC 29212.

E. faecalis ATCC 29212 = assay type: cell-based
Protocol: as §1

K. pneumoniae ATCC 13883 = assay type: cell-based
Protocol: as §1

P. aeruginosa ATCC 27853 = assay type: cell-based
Protocol: as §1

P. aeruginosa PAO1 = assay type: cell-based
Protocol: as §1

S. aureus ATCC 29213 = assay type: cell-based
Protocol: as §1

[2] = system: HepG2 cell line ATCC HB-8065; experiment: in vitro; assay type: cell-based; settings: 48 h
Protocol: Side effects affecting cell viability were estimated on the HepG2 cell line ATCC HB-8065. In brief, HepG2 cells were seeded in flat-bottomed 96-well plates at a concentration of 5000 cells per well. At 80−90% confluency, the cells were incubated for 24 h in a humidified incubator (5% CO2, 37 °C). The medium was removed, and the cells were incubated for 48 h in a humidified incubator (5% CO2, 37 °C) with compounds in two-fold serial dilutions. An MTT assay was then performed as previously described. In brief, after incubation with the test compounds, the culture medium was removed and fresh medium with 0.2 mg/mL MTT was added in each well of the plate. After incubation (3 h, 37 °C, 5% CO2), the medium with MTT was removed, and 200 μL dimethyl sulfoxide were added at once to each sample. Absorbance of MTT was measured using spectrophotometer TECAN Infinite M1000 at 540 nm. The relative viability was calculated by using the formula: ODtreated cells × 100/ODcontrol cells. The IC50 values are calculated by using the program Graph Pad Prism® 5.0. For all compounds, the test range was 10–1280 μg/mL.

in vitro = assay type: cell-based; settings: human, Hemolytic Activity (percentage hemolysis)
Protocol: The lysis of human red blood cells was measured as previously described, with modifications. In brief, freshly drawn human red blood cells (hRBCs) were washed three times with PBS buffer and centrifuged two times for 5 min at 2500 rpm. A two-fold serial dilution of peptidomimetics in PBS buffer was added to each well in a sterile polypropylene V-bottom 96-well plate to the total volume of 75 μL. A 0.5% v/v hRBC suspension (75 μL in PBS buffer) was added to each well to reach a final volume of 150 μL in each well. The plate was incubated (37 °C) for 60 min, and then the cells were subsequently pelleted by centrifugation at 1000 rpm for 5 min. The supernatants (50 μL) were transferred to clear, flat-bottomed plastic 96-well plates. The concentration of hemoglobin was detected by measuring the OD at 405 nm. The OD of cells incubated with 0.1% SDS defined 100% hemolysis, while the OD of cells incubated with PBS buffer defined 0% hemolysis. The concentrations tested were 200, 400, and 800 μg/mL (only average values for the highest concentration are stated in Table 2).

A. baumannii ATCC 19606 = assay type: cell-based
Protocol: as §1

| Compound | Hydrophobicity (% MeCN at elution) [1] [%] | MIC (E. coli ATCC 25922; ATCC 25922, 20 h) [µg/mL] | MIC (E. faecalis ATCC 29212; ATCC 29212, 20 h) [µg/mL] | MIC (K. pneumoniae ATCC 13883; ATCC 13883, 20 h) [µg/mL] | MIC (P. aeruginosa ATCC 27853; ATCC 27853, 20 h) [µg/mL] | MIC (P. aeruginosa PAO1; PAO1, 20 h) [µg/mL] | MIC (S. aureus ATCC 29213; ATCC 29213, 20 h) [µg/mL] | IC50 for inhibiting growth of HepG2 cells [2] [µg/mL] | hemolysis at 60 min, 800 µg/mL (in vitro) [%] | MIC (A. baumannii ATCC 19606; ATCC 19606, 20 h) [µg/mL] | MIC (A. baumannii ATCC 19606; A. baumannii ATCC 19606, Gram-negative, 20 h, Mueller-Hinton broth) [µg/mL] | MIC (E. coli ATCC 25922; E. coli ATCC 25922, Gram-negative, 20 h, Mueller-Hinton broth) [µg/mL] | MIC (E. faecalis ATCC 29212; E. faecalis ATCC 29212, Gram-positive, 20 h, Mueller-Hinton broth) [µg/mL] | MIC (K. pneumoniae ATCC 13883; K. pneumoniae ATCC 13883, Gram-negative, 20 h, Mueller-Hinton broth) [µg/mL] | MIC (P. aeruginosa ATCC 27853; P. aeruginosa ATCC 27853, Gram-negative, 20 h, Mueller-Hinton broth) [µg/mL] | MIC (P. aeruginosa PAO1; P. aeruginosa PAO1, Gram-negative, 20 h, Mueller-Hinton broth) [µg/mL] | MIC (S. aureus ATCC 29213; S. aureus ATCC 29213, Gram-positive, 20 h, Mueller-Hinton broth) [µg/mL] |
| --- | --- | --- | --- | --- | --- | --- | --- | --- | --- | --- | --- | --- | --- | --- | --- | --- | --- |
| NCCCCCNCC(=O)N[C@@H](CCc1ccccc1)C(=O)N(CCCCCN)CC(=O)N[C@@H](CCc1ccccc1)C(=O)N(CCCCCN)CC(=O)N[C@@H](CCc1ccccc1)C(=O)N(CCCCCN)CC(=O)N[C@@H](CCc1ccccc1)C(=O)N(CCCCCN)CC(=O)N[C@@H](CCc1ccccc1)C(=O)N(CCCCCN)CC(=O)N[C@@H](CCc1ccccc1)C(N)=O [Peptidomimetic 8] (H-[N(5-aminopentyl)Gly][hPhe][N(5-aminopentyl)Gly][hPhe][N(5-aminopentyl)Gly][hPhe][N(5-aminopentyl)Gly][hPhe][N(5-aminopentyl)Gly][hPhe][N(5-aminopentyl)Gly][hPhe]-NH2) | 40.9 | 2 (≈ 1.09 µM) | >64 | 64 (≈ 34.8 µM) | 64 (≈ 34.8 µM) | 64 (≈ 34.8 µM) | >64 | 266 | 9 | – | – | – | – | – | – | – | – |
| NCC[C@H](NC(=O)CN(Cc1ccccc1)C(=O)[C@H](CCN)NC(=O)CN(Cc1ccccc1)C(=O)[C@H](CCN)NC(=O)CN(Cc1ccccc1)C(=O)[C@H](CCN)NC(=O)CN(Cc1ccccc1)C(=O)[C@H](CCN)NC(=O)CN(Cc1ccccc1)C(=O)[C@@H](N)CCN)C(=O)N(CC(N)=O)Cc1ccccc1 [Peptidomimetic 9] (H-[Dab][Nphe][Dab][Nphe][Dab][Nphe][Dab][Nphe][Dab][Nphe][Dab][Nphe]-NH2) | – | 2 to 4 | >64 | 32 to 64 | 1 (≈ 0.666 µM) | 2 (≈ 1.33 µM) | >64 | 326 | 79 | – | – | – | – | – | – | – | – |
| NCCC[C@H](NC(=O)CN(Cc1ccccc1)C(=O)[C@H](CCCN)NC(=O)CN(Cc1ccccc1)C(=O)[C@H](CCCN)NC(=O)CN(Cc1ccccc1)C(=O)[C@H](CCCN)NC(=O)CN(Cc1ccccc1)C(=O)[C@H](CCCN)NC(=O)CN(Cc1ccccc1)C(=O)[C@@H](N)CCCN)C(=O)N(CC(N)=O)Cc1ccccc1 [Peptidomimetic 10] (H-[Orn][Nphe][Orn][Nphe][Orn][Nphe][Orn][Nphe][Orn][Nphe][Orn][Nphe]-NH2) | – | 4 to 8 | >64 | >64 | 2 to 4 | 4 to 8 | >64 | 923 | 10 | – | – | – | – | – | – | – | – |
| NCC[C@H](NC(=O)CN(CCc1ccccc1)C(=O)[C@H](CCN)NC(=O)CN(CCc1ccccc1)C(=O)[C@H](CCN)NC(=O)CN(CCc1ccccc1)C(=O)[C@H](CCN)NC(=O)CN(CCc1ccccc1)C(=O)[C@H](CCN)NC(=O)CN(CCc1ccccc1)C(=O)[C@@H](N)CCN)C(=O)N(CCc1ccccc1)CC(N)=O [Peptidomimetic 13] (H-[Dab][Gly(NCH2CH2Ph)][Dab][Gly(NCH2CH2Ph)][Dab][Gly(NCH2CH2Ph)][Dab][Gly(NCH2CH2Ph)][Dab][Gly(NCH2CH2Ph)][Dab][Gly(NCH2CH2Ph)]-NH2) | – | 4 (≈ 2.52 µM) | >64 | 32 (≈ 20.2 µM) | 2 (≈ 1.26 µM) | 2 to 4 | >64 | 261 | 53 | >64 | – | – | – | – | – | – | – |
| NCCCCC[C@H](NC(=O)CN(CCc1ccccc1)C(=O)[C@H](CCCCCN)NC(=O)CN(CCc1ccccc1)C(=O)[C@H](CCCCCN)NC(=O)CN(CCc1ccccc1)C(=O)[C@H](CCCCCN)NC(=O)CN(CCc1ccccc1)C(=O)[C@H](CCCCCN)NC(=O)CN(CCc1ccccc1)C(=O)[C@@H](N)CCCCCN)C(=O)N(CCc1ccccc1)CC(N)=O [Peptidomimetic 16] (H-[hLys][Gly(NCH2CH2Ph)][hLys][Gly(NCH2CH2Ph)][hLys][Gly(NCH2CH2Ph)][hLys][Gly(NCH2CH2Ph)][hLys][Gly(NCH2CH2Ph)][hLys][Gly(NCH2CH2Ph)]-NH2) | 41.1 | 4 (≈ 2.18 µM) | >64 | >64 | 16 (≈ 8.71 µM) | 32 (≈ 17.4 µM) | >64 | 410 | 9 | – | – | – | – | – | – | – | – |
| Colistin [reference compound] | – | – | – | – | – | – | – | – | – | – | 0.5 | 0.125 to 0.25 | >64 | 0.25 | 0.125 to 0.25 | 0.5 | >64 |
